Results: ChEMBL document CHEMBL4007392, “Modulating Mineralocorticoid Receptor with Non-steroidal Antagonists. New Opportunities for the Development of Potent and Selective Ligands without Off-Target Side Effects” (J Med Chem, 2017)
Each block holds one molecule with its values, some of them ahead of it.

Key:
Glucocorticoid receptor [1] = target: T1, Glucocorticoid receptor (Homo sapiens, UniProt P04150); assay: Displacement of [3H]-dexamethasone from GR overexpressed in human 293 cells measured after overnight incubation by TopCount method; assay type: cell-based
T1 sequence (P04150 whole entry): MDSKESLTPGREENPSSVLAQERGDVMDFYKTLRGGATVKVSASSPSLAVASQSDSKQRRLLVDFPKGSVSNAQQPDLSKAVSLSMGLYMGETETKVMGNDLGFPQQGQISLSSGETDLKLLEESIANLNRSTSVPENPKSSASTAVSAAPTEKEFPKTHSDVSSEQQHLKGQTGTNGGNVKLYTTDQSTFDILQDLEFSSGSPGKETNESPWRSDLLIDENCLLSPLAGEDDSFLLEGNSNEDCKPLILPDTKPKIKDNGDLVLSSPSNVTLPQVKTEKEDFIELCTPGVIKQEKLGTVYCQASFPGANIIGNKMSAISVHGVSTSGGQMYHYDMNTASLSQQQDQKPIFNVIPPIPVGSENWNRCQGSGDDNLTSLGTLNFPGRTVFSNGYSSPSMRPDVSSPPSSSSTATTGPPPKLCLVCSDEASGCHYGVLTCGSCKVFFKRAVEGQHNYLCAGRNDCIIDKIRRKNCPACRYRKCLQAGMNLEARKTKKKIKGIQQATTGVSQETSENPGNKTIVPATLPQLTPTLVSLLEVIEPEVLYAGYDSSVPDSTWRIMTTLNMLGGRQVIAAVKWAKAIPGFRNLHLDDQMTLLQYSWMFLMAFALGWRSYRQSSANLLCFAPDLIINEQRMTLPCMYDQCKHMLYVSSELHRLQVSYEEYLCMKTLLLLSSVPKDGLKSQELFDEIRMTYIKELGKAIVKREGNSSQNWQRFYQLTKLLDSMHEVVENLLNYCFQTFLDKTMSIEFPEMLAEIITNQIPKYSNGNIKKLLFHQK

[2] = target: T2, Mineralocorticoid receptor (Homo sapiens, UniProt P08235); assay: Displacement of [3H]-Aldosterone from MR overexpressed in human 293 cells measured after overnight incubation by TopCount method; assay type: cell-based
T2 sequence (P08235 whole entry): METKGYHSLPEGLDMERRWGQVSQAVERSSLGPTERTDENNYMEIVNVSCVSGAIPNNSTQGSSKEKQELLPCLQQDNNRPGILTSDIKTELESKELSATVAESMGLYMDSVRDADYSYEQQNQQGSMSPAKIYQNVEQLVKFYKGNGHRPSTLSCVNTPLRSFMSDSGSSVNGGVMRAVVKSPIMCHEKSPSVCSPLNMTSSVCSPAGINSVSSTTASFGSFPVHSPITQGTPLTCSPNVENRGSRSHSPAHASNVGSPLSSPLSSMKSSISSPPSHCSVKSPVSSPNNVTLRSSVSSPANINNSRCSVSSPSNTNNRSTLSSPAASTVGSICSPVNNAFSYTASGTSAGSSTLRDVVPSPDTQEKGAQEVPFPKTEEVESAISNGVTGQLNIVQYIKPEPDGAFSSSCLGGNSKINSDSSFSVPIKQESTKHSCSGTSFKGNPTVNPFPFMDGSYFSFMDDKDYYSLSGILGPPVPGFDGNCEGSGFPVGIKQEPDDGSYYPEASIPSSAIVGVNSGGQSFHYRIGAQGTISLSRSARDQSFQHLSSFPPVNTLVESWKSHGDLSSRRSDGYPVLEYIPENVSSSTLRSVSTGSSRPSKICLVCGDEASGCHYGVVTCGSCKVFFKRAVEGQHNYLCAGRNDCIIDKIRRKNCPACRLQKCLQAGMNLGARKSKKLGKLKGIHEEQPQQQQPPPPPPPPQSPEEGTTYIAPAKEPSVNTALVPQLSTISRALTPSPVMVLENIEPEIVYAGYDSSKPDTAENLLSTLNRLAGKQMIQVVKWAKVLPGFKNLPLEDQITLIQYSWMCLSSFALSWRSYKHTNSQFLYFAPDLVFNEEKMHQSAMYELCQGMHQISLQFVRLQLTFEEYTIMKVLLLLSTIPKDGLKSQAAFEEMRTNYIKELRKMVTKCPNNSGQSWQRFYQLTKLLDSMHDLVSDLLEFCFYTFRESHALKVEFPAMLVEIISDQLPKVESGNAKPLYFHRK

[3] = Half life in human hepatocytes; assay type: ADME, cell-based, Hepatocyte
[4] = Half life in human liver microsomes; assay type: ADME, microsome
[5] = Half life in rat; assay type: ADME; conditions: in vivo
[6] = Clearance in rat; assay type: ADME; conditions: in vivo
[7] = target: T3, Mineralocorticoid receptor (Homo sapiens) (UniProt P08235); assay: Antagonist activity at full-length human MR expressed in CHO-K1 cells assessed as inhibition of aldosterone-induced response measured after overnight incubation by luminesence analysis; assay type: cell-based
T3 sequence (whole entry): T2 sequence (P08235 whole entry)

[8] = target: T2, Mineralocorticoid receptor; assay: Binding affinity to MR (unknown origin)
[9] = target: T2, Mineralocorticoid receptor; assay: Antagonist activity at Gal4-fused MR LBD (unknown origin) expressed in human Huh7 cells assessed as inhibition of aldosterone-induced transcriptional activity after 3 hrs by luciferase reporter gene assay; assay type: cell-based
Progesterone receptor = target: T4, Progesterone receptor (Homo sapiens, UniProt P06401); assay: Antagonist activity at GAL4-fused human PR LBD (680 to 933 residues) expressed in CHO-K1 cells assessed as inhibition of progesterone-induced transactivation activity after 5 to 6 hrs by luciferase reporter gene assay; assay type: cell-based
T4 sequence (P06401 whole entry): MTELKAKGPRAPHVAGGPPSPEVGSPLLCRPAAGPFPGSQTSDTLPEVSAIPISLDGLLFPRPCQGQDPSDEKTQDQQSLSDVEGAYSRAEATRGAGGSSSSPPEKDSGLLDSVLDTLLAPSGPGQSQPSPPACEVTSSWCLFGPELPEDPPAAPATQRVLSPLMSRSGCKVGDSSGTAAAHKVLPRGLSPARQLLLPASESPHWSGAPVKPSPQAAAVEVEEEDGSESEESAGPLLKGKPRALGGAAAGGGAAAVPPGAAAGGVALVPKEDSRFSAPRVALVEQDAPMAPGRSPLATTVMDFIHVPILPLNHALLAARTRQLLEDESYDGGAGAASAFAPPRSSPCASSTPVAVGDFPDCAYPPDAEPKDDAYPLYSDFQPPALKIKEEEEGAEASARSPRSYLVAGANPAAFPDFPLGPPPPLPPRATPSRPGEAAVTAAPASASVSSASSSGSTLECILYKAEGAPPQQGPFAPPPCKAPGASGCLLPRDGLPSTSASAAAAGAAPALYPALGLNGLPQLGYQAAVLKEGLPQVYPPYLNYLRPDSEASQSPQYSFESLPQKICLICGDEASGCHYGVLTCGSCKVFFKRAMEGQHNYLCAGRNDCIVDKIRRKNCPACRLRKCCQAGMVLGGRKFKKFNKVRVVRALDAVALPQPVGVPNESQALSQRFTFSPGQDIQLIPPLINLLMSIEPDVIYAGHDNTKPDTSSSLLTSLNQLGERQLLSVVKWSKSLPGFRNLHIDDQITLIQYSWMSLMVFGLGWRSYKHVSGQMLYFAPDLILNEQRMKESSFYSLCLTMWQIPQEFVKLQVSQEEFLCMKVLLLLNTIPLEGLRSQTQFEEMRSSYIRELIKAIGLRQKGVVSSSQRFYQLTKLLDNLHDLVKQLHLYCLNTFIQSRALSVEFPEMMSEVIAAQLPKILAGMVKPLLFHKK

Androgen receptor = target: T5, Androgen receptor (Homo sapiens, UniProt P10275); assay: Antagonist activity at GAL4-fused human AR LBD (667 to 919 residues) expressed in CHO-K1 cells assessed as inhibition of dihydrotestosterone-induced transactivation activity after 5 to 6 hrs by luciferase reporter gene assay; assay type: cell-based
T5 sequence (P10275 whole entry): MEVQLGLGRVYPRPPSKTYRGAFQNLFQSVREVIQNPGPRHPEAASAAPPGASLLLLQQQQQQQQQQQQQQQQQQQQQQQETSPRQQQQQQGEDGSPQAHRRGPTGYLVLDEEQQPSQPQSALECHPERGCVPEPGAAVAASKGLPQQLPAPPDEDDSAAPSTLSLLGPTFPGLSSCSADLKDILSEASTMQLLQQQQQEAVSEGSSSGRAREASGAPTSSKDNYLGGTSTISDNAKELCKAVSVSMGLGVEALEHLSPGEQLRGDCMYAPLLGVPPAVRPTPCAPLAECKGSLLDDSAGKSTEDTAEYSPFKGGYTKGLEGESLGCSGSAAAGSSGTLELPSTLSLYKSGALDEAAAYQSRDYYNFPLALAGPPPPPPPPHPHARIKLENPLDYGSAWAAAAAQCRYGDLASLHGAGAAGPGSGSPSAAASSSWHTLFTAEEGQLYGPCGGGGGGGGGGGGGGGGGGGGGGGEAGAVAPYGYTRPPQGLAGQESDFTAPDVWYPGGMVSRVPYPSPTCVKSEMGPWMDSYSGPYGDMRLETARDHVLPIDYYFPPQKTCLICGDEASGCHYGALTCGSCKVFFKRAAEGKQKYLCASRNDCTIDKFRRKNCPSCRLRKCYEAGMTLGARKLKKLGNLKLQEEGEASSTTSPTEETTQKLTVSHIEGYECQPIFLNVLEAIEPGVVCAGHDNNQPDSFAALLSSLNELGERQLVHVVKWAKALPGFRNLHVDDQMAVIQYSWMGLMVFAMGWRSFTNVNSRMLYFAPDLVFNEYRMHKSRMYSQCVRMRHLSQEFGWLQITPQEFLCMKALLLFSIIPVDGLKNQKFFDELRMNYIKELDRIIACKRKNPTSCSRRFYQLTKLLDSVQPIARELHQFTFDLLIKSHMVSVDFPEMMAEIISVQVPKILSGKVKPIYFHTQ

[10] = target: T2, Mineralocorticoid receptor; assay: Antagonist activity at Gal4-fused human MR LBD (734 to 985 residues) expressed in CHO-K1 cells after 5 to 6 hrs by luciferase reporter gene assay; assay type: cell-based
Glucocorticoid receptor [11] = target: T1, Glucocorticoid receptor; assay: Antagonist activity at GAL4-fused human GR LBD (443 to 777 residues) expressed in CHO-K1 cells assessed as inhibition of dexamethasone-induced transactivation activity after 5 to 6 hrs by luciferase reporter gene assay; assay type: cell-based

Compound: CC(c1ccccc1)(c1c[nH]c2c(NS(C)(=O)=O)cccc12)C1CC1 (centres undefined)
Ki (Glucocorticoid receptor [1]): ≤ 500 nM
Ki [2]: ≤ 500 nM

Compound: CCC(O)C(CC)(c1ccc(C(F)(F)F)cc1)n1ncc2c(NS(C)(=O)=O)cccc21 (centres undefined)
half-life [3]: > 1.5 h
half-life [4]: 1.2 h
half-life [5]: 5.3 h
clearance [6]: 24 mL/min/kg
Inhibitory potency [7]: 4 nM

Compound: CCOc1ncc(C)c2c1[C@H](c1ccc(C#N)cc1OC)C(C#N)=C(C)N2
IC50 (Progesterone receptor): 4200 nM
IC50 (Androgen receptor): 2400 nM
IC50 [10]: 26 nM
IC50 (Glucocorticoid receptor [11]): 5800 nM

Compound: CCOc1nccc2c1[C@H](c1ccc(C#N)cc1OC)C(C#N)=C(C)N2
IC50 (Progesterone receptor): 5400 nM
IC50 (Androgen receptor): 2800 nM
IC50 [10]: 47 nM
IC50 (Glucocorticoid receptor [11]): 6900 nM

Further lines, results first:

Kd [8]: 0.5 to 2 nM
Compound: C[C@]12C[C@H](O)[C@H]3[C@@H](CCC4=CC(=O)CC[C@@]43C)[C@@H]1CC[C@@H]2C(=O)CO [CORTICOSTERONE]

IC50 [9]: 33.4 nM
Compound: C[C@@H]1CN(c2ccc3c(c2)NC(=O)CO3)[C@H](c2ccccc2F)CO1

Ki (Glucocorticoid receptor [1]): ≤ 500 nM
Ki [2]: ≤ 500 nM
Compound: Cc1ccc(C(C)(c2c[nH]c3c(NS(C)(=O)=O)cccc23)C2CC2)cc1 (centres undefined)
